Reference: ChEMBL document CHEMBL4152300, “Discovery of the selective and efficacious inhibitors of FLT3 mutations” (Eur J Med Chem, 2018)

What was measured:
[1] = biological target: T1, Receptor-type tyrosine-protein kinase FLT3 (Homo sapiens, UniProt P36888); experiment: Inhibition of human FLT3 assessed as residual activity at 0.123 uM by Hotspot assay relative to control
[2] = biological target: T2, CDK2 (cyclin-dependent kinase 2) (Homo sapiens, UniProt P24941); experiment: Inhibition of CDK2 (unknown origin) assessed as residual activity at 0.123 uM by Hotspot assay relative to control; details: CDK2 enzyme (unknown origin), read-out: Activity
[3] = biological target: T3, Cyclin-dependent kinase 6 (Homo sapiens, UniProt Q00534); experiment: Inhibition of CDK6 (unknown origin) assessed as residual activity at 0.123 uM by Hotspot assay relative to control
T3 sequence (Q00534 whole entry): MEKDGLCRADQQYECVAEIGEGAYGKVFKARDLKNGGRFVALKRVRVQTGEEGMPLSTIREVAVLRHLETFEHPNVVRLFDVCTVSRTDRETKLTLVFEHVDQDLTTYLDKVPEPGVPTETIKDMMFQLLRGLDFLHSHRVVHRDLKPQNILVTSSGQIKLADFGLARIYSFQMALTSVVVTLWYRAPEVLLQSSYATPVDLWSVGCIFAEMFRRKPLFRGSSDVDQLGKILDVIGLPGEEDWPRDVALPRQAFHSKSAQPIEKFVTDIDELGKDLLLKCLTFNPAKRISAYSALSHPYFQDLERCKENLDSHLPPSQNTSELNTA

[4] = biological target: T4, Receptor-type tyrosine-protein kinase FLT3 (Homo sapiens, UniProt P36888)
T4 sequence (P36888 whole entry): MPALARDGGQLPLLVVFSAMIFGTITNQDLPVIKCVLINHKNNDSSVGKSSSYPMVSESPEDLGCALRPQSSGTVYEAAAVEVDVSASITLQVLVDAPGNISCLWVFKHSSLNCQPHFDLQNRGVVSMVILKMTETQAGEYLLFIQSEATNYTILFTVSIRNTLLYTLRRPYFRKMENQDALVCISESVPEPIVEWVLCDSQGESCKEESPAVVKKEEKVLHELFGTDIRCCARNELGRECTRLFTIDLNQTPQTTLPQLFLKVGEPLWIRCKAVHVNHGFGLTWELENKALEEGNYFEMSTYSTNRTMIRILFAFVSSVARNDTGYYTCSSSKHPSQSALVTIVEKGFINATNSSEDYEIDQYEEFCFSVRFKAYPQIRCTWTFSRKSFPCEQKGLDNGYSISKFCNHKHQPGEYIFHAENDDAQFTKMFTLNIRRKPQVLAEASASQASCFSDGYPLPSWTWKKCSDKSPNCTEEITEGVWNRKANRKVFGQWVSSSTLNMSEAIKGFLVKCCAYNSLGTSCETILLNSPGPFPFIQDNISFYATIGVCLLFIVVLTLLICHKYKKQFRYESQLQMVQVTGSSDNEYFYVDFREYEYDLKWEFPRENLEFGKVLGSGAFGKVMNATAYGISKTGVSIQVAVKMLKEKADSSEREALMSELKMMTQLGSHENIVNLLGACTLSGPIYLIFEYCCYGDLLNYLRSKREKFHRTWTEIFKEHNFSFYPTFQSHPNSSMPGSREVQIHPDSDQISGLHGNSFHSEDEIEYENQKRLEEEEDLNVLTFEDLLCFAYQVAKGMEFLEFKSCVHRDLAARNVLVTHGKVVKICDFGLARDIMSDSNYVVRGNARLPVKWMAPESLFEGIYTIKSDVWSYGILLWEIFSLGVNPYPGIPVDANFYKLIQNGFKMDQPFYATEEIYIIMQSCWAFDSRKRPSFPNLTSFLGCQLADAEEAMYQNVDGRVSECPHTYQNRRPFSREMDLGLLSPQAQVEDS
Description: Inhibition of human FLT3 by Hotspot assay

MV4-11 = experiment: Growth inhibition of human MV4-11 cells harboring FLT3-ITD after 72 hrs by Cell-Titer Glo assay; assay type: functional, cell-based; details: MV4-11, 72 h
[5] = biological target: Receptor-type tyrosine-protein kinase FLT3 (Homo sapiens, UniProt P36888, F691L/ITD); experiment: Binding affinity to human FLT3 ITD/F691L double mutant expressed in bacterial expression system by Kinomescan method
[6] = biological target: T1, Receptor-type tyrosine-protein kinase FLT3; experiment: Inhibition of human FLT3 F594_R595insREY mutant by Hotspot assay
[7] = biological target: T1, Receptor-type tyrosine-protein kinase FLT3; experiment: Inhibition of human FLT3 F594_R595insR mutant by Hotspot assay
CDK6/cyclin D1 = CDK6/cyclin D1 (Homo sapiens, UniProt Q00534); experiment: Inhibition of human CDK6/Cyclin-D1 at 0.123 uM by Hotspot assay; assay type: protein-complex assay
Chain of CDK6/cyclin D1 (P24385 whole entry): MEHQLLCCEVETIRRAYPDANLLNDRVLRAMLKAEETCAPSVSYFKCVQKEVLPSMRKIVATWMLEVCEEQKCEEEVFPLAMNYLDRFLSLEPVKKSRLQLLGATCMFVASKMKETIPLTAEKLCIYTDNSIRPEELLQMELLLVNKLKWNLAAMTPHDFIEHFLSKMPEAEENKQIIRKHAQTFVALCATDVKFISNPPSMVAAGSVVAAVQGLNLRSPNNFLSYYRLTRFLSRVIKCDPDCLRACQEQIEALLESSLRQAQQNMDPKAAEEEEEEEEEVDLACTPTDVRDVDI
Chain of CDK6/cyclin D1 (Q00534 whole entry): as the sequence (Q00534 whole entry) above

[8] = biological target: Receptor-type tyrosine-protein kinase FLT3 (Homo sapiens, UniProt P36888, D835V/ITD); experiment: Binding affinity to human FLT3 ITD/D835V double mutant expressed in bacterial expression system by Kinomescan method
[9] = biological target: Cyclin-dependent kinase 4/cyclin D1 (Homo sapiens, UniProt P11802); experiment: Inhibition of human CDK4/Cyclin-D1 at 0.123 uM by Hotspot assay; assay type: protein-complex assay
Chain of Cyclin-dependent kinase 4/cyclin D1 (P11802 whole entry): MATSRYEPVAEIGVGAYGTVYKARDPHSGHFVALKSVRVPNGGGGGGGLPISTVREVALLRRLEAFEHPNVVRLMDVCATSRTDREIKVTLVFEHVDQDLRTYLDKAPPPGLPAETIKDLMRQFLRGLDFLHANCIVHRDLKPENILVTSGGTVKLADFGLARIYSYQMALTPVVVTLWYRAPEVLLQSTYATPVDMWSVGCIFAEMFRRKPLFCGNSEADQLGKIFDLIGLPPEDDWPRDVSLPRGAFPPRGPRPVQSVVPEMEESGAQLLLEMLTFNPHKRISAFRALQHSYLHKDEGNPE
Chain of Cyclin-dependent kinase 4/cyclin D1 (P24385 whole entry, further chain): as the sequence (P24385 whole entry) above

[10] = Intrinsic clearance in human liver microsomes preincubated for 5 mins followed by NADPH addition by LC-MS/MS analysis; assay type: ADME, microsome; details: read-out: CLH
[11] = biological target: T1, Receptor-type tyrosine-protein kinase FLT3; experiment: Inhibition of human FLT3 R595_E596 mutant by Hotspot assay
[12] = biological target: Vascular endothelial growth factor receptor 3 (Homo sapiens, UniProt P35916); experiment: Inhibition of human FLT4 by Hotspot assay
Chain of Vascular endothelial growth factor receptor 3 (P35916 whole entry): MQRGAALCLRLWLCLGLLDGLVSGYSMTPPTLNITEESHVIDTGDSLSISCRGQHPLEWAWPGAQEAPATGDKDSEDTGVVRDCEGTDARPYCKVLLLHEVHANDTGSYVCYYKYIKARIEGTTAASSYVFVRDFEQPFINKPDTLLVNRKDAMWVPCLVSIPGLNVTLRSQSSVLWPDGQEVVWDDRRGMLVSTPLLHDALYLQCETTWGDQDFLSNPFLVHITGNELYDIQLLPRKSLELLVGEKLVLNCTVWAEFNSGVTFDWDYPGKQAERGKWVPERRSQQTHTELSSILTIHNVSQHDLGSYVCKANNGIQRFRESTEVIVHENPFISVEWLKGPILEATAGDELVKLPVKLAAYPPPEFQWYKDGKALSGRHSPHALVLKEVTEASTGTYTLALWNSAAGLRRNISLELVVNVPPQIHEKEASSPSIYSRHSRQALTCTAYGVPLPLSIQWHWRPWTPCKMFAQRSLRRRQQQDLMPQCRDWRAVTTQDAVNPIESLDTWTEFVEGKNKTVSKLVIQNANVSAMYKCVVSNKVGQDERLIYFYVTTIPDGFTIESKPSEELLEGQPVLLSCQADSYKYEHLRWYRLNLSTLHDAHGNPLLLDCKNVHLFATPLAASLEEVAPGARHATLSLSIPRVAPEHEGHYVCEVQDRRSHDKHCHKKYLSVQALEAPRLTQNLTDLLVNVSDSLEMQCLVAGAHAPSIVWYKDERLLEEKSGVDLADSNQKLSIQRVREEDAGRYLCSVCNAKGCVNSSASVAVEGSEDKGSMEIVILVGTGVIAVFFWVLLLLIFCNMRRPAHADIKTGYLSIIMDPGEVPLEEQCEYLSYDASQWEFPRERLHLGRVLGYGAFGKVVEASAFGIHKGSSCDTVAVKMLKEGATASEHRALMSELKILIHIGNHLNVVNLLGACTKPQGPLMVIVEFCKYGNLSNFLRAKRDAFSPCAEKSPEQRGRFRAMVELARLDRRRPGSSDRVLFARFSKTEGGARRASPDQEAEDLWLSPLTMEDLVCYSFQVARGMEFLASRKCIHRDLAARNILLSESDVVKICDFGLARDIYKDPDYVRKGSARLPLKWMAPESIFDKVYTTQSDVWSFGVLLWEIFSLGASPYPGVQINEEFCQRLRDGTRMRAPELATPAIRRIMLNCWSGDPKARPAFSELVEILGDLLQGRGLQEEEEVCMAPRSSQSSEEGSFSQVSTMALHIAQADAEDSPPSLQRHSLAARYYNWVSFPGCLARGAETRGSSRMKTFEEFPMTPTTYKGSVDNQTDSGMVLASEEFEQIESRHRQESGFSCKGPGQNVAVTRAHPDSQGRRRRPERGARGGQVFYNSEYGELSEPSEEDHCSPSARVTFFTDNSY

[13] = Half life in human liver microsomes preincubated for 5 mins followed by NADPH addition by LC-MS/MS analysis; assay type: ADME, microsome
[14] = biological target: T1, Receptor-type tyrosine-protein kinase FLT3; experiment: Inhibition of human FLT3 Y591-V592 mutant by Hotspot assay
[15] = Drug uptake in human liver microsomes up to 60 mins by LC-MS/MS analysis; assay type: ADME, microsome; details: 1 h
MOLM-13 = experiment: Growth inhibition of human MOLM13 cells harboring FLT3-ITD after 72 hrs by Cell-Titer Glo assay; assay type: functional, cell-based; details: MOLM-13, 72 h
[16] = biological target: T5, Receptor-type tyrosine-protein kinase FLT3 (Homo sapiens, UniProt P36888, D835Y); experiment: Inhibition of human FLT3 D835Y mutant by Hotspot assay
K562 = experiment: Growth inhibition of FLT3 null human K562 cells after 72 hrs by Cell-Titer Glo assay; assay type: functional, cell-based; details: K562, 72 h
HL-60 = experiment: Growth inhibition of human HL60 cells expressing low levels of FLT3 after 72 hrs by Cell-Titer Glo assay; assay type: functional, cell-based; details: HL-60, 72 h
[17] = biological target: Mitogen-activated protein kinase 15 (Homo sapiens, UniProt Q8TD08); experiment: Inhibition of human ERK7 at 0.123 uM by Hotspot assay
Chain of Mitogen-activated protein kinase 15 (Q8TD08 whole entry): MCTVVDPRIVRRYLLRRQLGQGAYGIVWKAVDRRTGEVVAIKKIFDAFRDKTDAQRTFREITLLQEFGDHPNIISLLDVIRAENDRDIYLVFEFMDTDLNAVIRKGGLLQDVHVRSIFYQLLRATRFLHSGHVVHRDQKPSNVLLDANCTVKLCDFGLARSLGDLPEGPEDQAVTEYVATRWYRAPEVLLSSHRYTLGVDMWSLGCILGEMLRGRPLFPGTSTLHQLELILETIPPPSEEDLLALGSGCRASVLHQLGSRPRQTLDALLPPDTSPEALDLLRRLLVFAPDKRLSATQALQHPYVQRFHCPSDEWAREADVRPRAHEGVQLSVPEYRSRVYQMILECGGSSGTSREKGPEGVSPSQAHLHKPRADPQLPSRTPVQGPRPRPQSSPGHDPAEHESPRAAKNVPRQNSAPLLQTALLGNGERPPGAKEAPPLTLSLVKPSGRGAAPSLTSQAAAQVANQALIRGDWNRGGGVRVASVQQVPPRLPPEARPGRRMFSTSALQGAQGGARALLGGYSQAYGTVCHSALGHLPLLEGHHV

CDK2/Cyclin A2 = CDK2/Cyclin A2 (Homo sapiens, UniProt P24941); experiment: Inhibition of human CDK2/Cyclin-A at 0.123 uM by Hotspot assay; assay type: protein-complex assay
[18] = biological target: T6, Receptor-type tyrosine-protein kinase FLT3 (Homo sapiens, UniProt P36888, ITD); experiment: Inhibition of human FLT3 ITD-W51 mutant by Hotspot assay
[19] = biological target: T3, Cyclin-dependent kinase 6; experiment: Inhibition of CDK6 (unknown origin) at 0.123 uM by Hotspot assay relative to control
[20] = biological target: T5, Receptor-type tyrosine-protein kinase FLT3; experiment: Binding affinity to human FLT3 D835Y mutant (Q580 to Y969 residues) expressed in bacterial expression system by Kinomescan method
[21] = biological target: T3, Cyclin-dependent kinase 6; experiment: Inhibition of CDK6 (unknown origin) by Hotspot assay
[22] = biological target: T2, CDK2 (cyclin-dependent kinase 2); experiment: Inhibition of CDK2 (unknown origin) at 0.123 uM by Hotspot assay relative to control; details: CDK2 enzyme (unknown origin)
[23] = biological target: T6, Receptor-type tyrosine-protein kinase FLT3; experiment: Inhibition of human FLT3 ITD-NPOS mutant by Hotspot assay
Homo sapiens [24] = species on record: Homo sapiens; experiment: Selectivity ratio of IC50 for CDK6 (unknown origin) to IC50 for human FLT3
Homo sapiens [25] = species on record: Homo sapiens; experiment: Selectivity ratio of IC50 for CDK2 (unknown origin) to IC50 for human FLT3
[26] = biological target: Cyclin-dependent kinase 2 (Homo sapiens, UniProt P24941); experiment: Inhibition of CDK2 (unknown origin) by Hotspot assay

Cc1[nH]nc(C(=O)Nc2ccc(CN3CCN(C)CC3)cc2)c1Nc1ncnc2[nH]ccc12
Activity [1]: 98.5%
activity at 0.123 µM [2]: 99.9%
Activity [3]: 95.7%

CN1CCN(Cc2ccc(NC(=O)c3nn(C)cc3Nc3ncnc4[nH]ccc34)cc2)CC1
Activity [1]: 87.6%
activity at 0.123 µM [2]: 98.5%
Activity [3]: 99.3%

O=C(Nc1ccc(CN2CCOCC2)cc1)c1n[nH]cc1Nc1nc(C2CC2)nc2sccc12
IC50 [4]: 16.5 nM
IC50 (MV4-11): 78 nM
activity at 0.123 µM [2]: 81.4%
Activity [3]: 95.4%

CC(C)(C)c1nc(Nc2c[nH]nc2C(=O)Nc2ccc(N3CCNCC3)cc2)c2ccsc2n1
IC50 [4]: 20.5 nM
IC50 (MV4-11): 98 nM
activity at 0.123 µM [2]: 100%
Activity [3]: 99.2%

Cc1[nH]nc(C(=O)Nc2ccc(CN3CCN(C)CC3)cc2)c1Nc1ncnc2sccc12
Activity [1]: 98.5%
activity at 0.123 µM [2]: 99.7%
Activity [3]: 96.2%

Cc1nc(Nc2c[nH]nc2C(=O)Nc2ccc(N3CCOCC3)cc2)c2ccsc2n1
IC50 [4]: 3.8 nM
IC50 (MV4-11): 33 nM
activity at 0.123 µM [2]: 78.8%
Activity [3]: 83.1%

CN1CCN(Cc2ccc(NC(=O)c3n[nH]cc3Nc3ncnc4sccc34)cc2)CC1
Kd [5]: 1.3 nM
IC50 [6]: 7.35 nM
IC50 [7]: 1.23 nM
IC50 (CDK6/cyclin D1): < 10 nM
Kd [8]: 0.23 nM
IC50 [9]: < 10 nM
microsomal CLint [10]: 13.6 µL/min/mg
IC50 [11]: 2.67 nM
IC50 [12]: 4.5 nM
IC50 [4]: 0.6 nM
half-life [13]: 51 min
IC50 [14]: 13.2 nM
Drug uptake [15]: 29.7%
IC50 (MV4-11): 16 nM
IC50 (MOLM-13): 39 nM
IC50 [16]: 0.54 nM
IC50 (K562): 235 nM
IC50 (HL-60): 334 nM
IC50 [17]: < 10 nM
IC50 (CDK2/Cyclin A2): < 10 nM
IC50 [18]: 1.85 nM
inhibition [19]: > 80%
Kd [20]: 7.01 nM
IC50 [21]: 3.33 nM
inhibition at 0.123 µM [22]: > 80%
IC50 [23]: 17.5 nM

Cc1nc(Nc2c[nH]nc2C(=O)Nc2ccc(CN3CCN(C)CC3)cc2)c2ccsc2n1
Ratio IC50 (Homo sapiens [24]): 100
IC50 [4]: 0.65 nM
IC50 (MV4-11): 52 nM
activity at 0.123 µM [2]: 51.1%
Ratio IC50 (Homo sapiens [25]): 100
Activity [3]: 72.1%

Cc1nc2c(c(Nc3c[nH]nc3C(=O)Nc3ccc(N4CCNCC4)cc3)n1)CCCC2
IC50 [4]: 0.66 nM
IC50 (MV4-11): 18 nM
activity at 0.123 µM [2]: 79.4%
Activity [3]: 87.2%

O=C(Nc1ccc(N2CCNCC2)cc1)c1n[nH]cc1Nc1nc(C2CC2)nc2sccc12
IC50 [4]: 2.53 nM
IC50 (MV4-11): 59 nM
activity at 0.123 µM [2]: 97.4%
Activity [3]: 88%

Cc1nc(Nc2c[nH]nc2C(=O)Nc2ccc(CN3CCOCC3)cc2)c2cc(C(C)C)sc2n1
IC50 [26]: 25.4 nM
IC50 [4]: 0.66 nM
IC50 (MV4-11): 48 nM
inhibition [19]: > 80%
IC50 [21]: 33.2 nM
inhibition at 0.123 µM [22]: > 80%

CC(C)c1nc(Nc2c[nH]nc2C(=O)Nc2ccc(N3CCNCC3)cc2)c2ccsc2n1
IC50 [4]: 11.3 nM
IC50 (MV4-11): 57 nM
activity at 0.123 µM [2]: 101%
Activity [3]: 93.5%

Cc1nc(Nc2c[nH]nc2C(=O)Nc2ccc(N3CCNCC3)cc2)c2ccsc2n1
IC50 [26]: 81.5 nM
Ratio IC50 (Homo sapiens [24]): 131
IC50 [4]: 0.62 nM
IC50 (MV4-11): 19 nM
Ratio IC50 (Homo sapiens [25]): 131
inhibition [19]: > 80%
IC50 [21]: 84.3 nM
inhibition at 0.123 µM [22]: > 80%

Cc1nc(Nc2c[nH]nc2C(=O)Nc2ccc(CN3CCN(C)CC3)cc2)c2cc(C(C)C)sc2n1
IC50 [26]: 21.5 nM
IC50 [4]: 0.73 nM
IC50 (MV4-11): 65 nM
inhibition [19]: > 80%
IC50 [21]: 19.2 nM
inhibition at 0.123 µM [22]: > 80%

Cc1nc(Nc2c[nH]nc2C(=O)Nc2ccc(N3CCN(C)CC3)cc2)c2ccsc2n1
IC50 [4]: 0.95 nM
IC50 (MV4-11): 27 nM
activity at 0.123 µM [2]: 71.2%
Activity [3]: 72.7%

CCc1nc(Nc2c[nH]nc2C(=O)Nc2ccc(N3CCNCC3)cc2)c2ccsc2n1
IC50 [4]: 3.42 nM
IC50 (MV4-11): 65 nM
activity at 0.123 µM [2]: 86.6%
Activity [3]: 87%

O=C(Nc1ccc(N2CCNCC2)cc1)c1n[nH]cc1Nc1nc(Cl)nc2sccc12
IC50 [4]: 0.47 nM
IC50 (MV4-11): 26 nM
activity at 0.123 µM [2]: 56.8%
Activity [3]: 63.6%

CN1CCN(Cc2ccc(NC(=O)c3n[nH]cc3Nc3nc(C4CC4)nc4sccc34)cc2)CC1
IC50 [4]: 15.7 nM
IC50 (MV4-11): 61 nM
activity at 0.123 µM [2]: 89.8%
Activity [3]: 103%

Cc1nc(Nc2c[nH]nc2C(=O)Nc2ccc(CN3CCOCC3)cc2)c2ccsc2n1
IC50 [4]: 3.63 nM
IC50 (MV4-11): 62 nM
activity at 0.123 µM [2]: 52%
Activity [3]: 79.7%
